Results published in US12509430B2, “Inhibitors of nicotinamide N-methyltransferase, compositions and uses thereof” (President and Fellows of Harvard College, priority 2020, dated 2025).
Read-outs that look alike come from different tables or passages of the source. Blank lines part the entries; values can stand above or below the compound they belong to.

How the values were obtained:
recombinant human NNMT = molecular target: T1, recombinant human NNMT (Homo sapiens, UniProt P40261); assay: in vitro NNMT enzyme inhibition assay (Promega MTase-Glo Methyltransferase Assay); assay type: biochemical
T1 sequence (P40261 1-264): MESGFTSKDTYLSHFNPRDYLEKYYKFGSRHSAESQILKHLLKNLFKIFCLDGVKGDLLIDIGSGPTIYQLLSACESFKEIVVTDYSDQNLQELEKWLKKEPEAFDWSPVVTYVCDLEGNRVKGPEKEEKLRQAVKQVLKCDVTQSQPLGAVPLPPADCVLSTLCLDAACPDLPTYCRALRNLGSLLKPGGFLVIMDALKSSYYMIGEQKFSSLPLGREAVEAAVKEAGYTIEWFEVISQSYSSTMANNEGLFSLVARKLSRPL
Method: NNMT biochemical activity for was evaluated using the Promega Mtase-Glo Methyltransferase Assay kit. Assays were performed in a white, flat-bottomed 96 well plate. […] Reactions were performed for 20 minutes at room temperature. MTase-Glo reagent and MTase-Glo detection solution were added according to manufacturer's instructions and luminescence signal measured with a SpectraMax i3 plate reader and data analyzed with GraphPad Prism version 8. FIG. 14 depicts a visual summary of the Promega MTase-Glo Methyltransferase assay used to assess biochemical activity of novel inhibitors.

[1] = In vivo pharmacokinetics, plasma concentration of inhibitor in female C57B16/N mice
Source text: Doses were freshly prepared on the day of dosing.

NNMT in K562 cells = molecular target: T2, NNMT in K562 cells (Homo sapiens, UniProt P40261); assay: Cellular inhibition of NNMT in K562 cells by 1-MNA quantification; assay type: cell-based
T2 construct: In K562 cells, which express NNMT; host or cells: K562
T2 sequence (P40261 1-264): T1 sequence (P40261 1-264)
Method: Cellular activity was measured in K562 (ATCC) cells via measuring (1-methyl nicotinamide) 1-MNA levels after compound incubation at varying concentrations overnight. […] Cells were collected by pipetting and extracted with 200 ul acetonitrile containing internal deuterated standard 10 ng/ml d4-1-MNA. […] The mobile phase A was 2.5 mM ammonium formate in water, and mobile phase B was methanol with 0.1% formic acid, delivered at 0.25 mL/min. The capillary voltage was set to 2400V and the nozzle at 300V. The drying gas temperature was 240° C., the drying gas flow rate was 4 L/min, and the nebulizer pressure was 40 psi. The mass spectrometer was run in multiple reaction monitoring mode.
(§1) All cells were cultured at 37° C. in a humidified incubator buffered with 5% CO2. K562 cells were maintained in RPMI supplemented with 10% fetal bovine serum (FBS). Ovarian CAFs were maintained in MSC-Gro Vitroplus III for proliferation and in DMEM containing 10 μM methionine with 10% dialyzed FBS for experiments. K562 were purchased from ATCC. Ovarian CAFs were purchased from Neuromics.

[2] = tested on: 1-Methylnicotinamide (1-MNA); assay: In vivo pharmacodynamics, plasma 1-MNA in female C57B16/N mice after inhibitor dosing; set-up: species or system mouse
Method: 1-Methylnicotinamide (1-MNA) concentrations were also determined.
Then the samples were vortexed for 30 s.

[3] = Microsomal stability, mouse microsomes with NADPH and UDPGA (Phase II); assay type: in vitro ADME; details: mouse liver microsomes, NADPH & UDPGA
Method: (§2) The metabolism of Compounds 4 and 13 was evaluated using a microsomal stability assay. Briefly, a master solution was prepared according to Tables 5 and 6.
(§3) For the assay with NADPH and UDPGA (Phase II), 40 μL of 10 mM NADPH solution and 40 μL of 20 mM UDPGA solution were added to each well. The final concentrations of NADPH and UDPGA were 1 mM and 2 mM. […] The negative control samples were prepared by replacing cofactors (NADPH and UDPGA) solution with 80 μL of ultra-pure H2O. Samples with cofactors were prepared in duplicate. Negative controls were prepared in singlet.
(§4) The reaction was started with the addition of 2 μL of 400 μM control compound or test compound solutions. Diclofenac was used as positive control in this study. The final concentration of test compound or control compound was 2 μM.
(§5) Aliquots of 50 μL were taken from the reaction solution at 0, 15, 30, 45 and 60 minutes.

NNMT in ovarian CAFs = molecular target: T3, NNMT in ovarian CAFs (Homo sapiens, UniProt P40261); assay: 1-MNA quantification in ovarian cancer associated fibroblasts; assay type: cell-based; details: 1 μM, six day continuous treatment
T3 construct: host or cells: ovarian cancer-associated fibroblasts
T3 sequence (P40261 1-264): T1 sequence (P40261 1-264)
Method: as §1
1-MNA quantification in ovarian CAFs (Neuromics) was performed similarly as in K562 cells, except cells were scraped off the plate in PBS buffer after a six day continuous treatment with compound and then extracted.

[4] = Microsomal stability, human microsomes with NADPH and UDPGA (Phase II); assay type: in vitro ADME; details: human liver microsomes, NADPH & UDPGA
Method: as §2, §3, §4, §5

[5] = Microsomal stability, human microsomes with NADPH (Phase I); assay type: in vitro ADME; details: human liver microsomes; for CLhep predicted at 2 μM: read-out: Predicted hepatic Clint; for CLint scaled at 2 μM: read-out: Scaled-up CLint
Method: as §2
(§6) The final concentrations of NADPH was 1 mM. […] Samples with NADPH were prepared in duplicate. Negative controls were prepared in singlet.
(§7) Verapamil was used as positive control in this study. The final concentration of test compound or control compound was 2 μM.
as §5

[6] = tested on: Ovarian Cancer Associated Fibroblasts (CAF) markers; assay: CAF markers in ovarian CAFs (gel electrophoresis); assay type: cell-based, human; details: incubation with compound, FIG. 5
Method: as §1

[7] = Microsomal stability, mouse microsomes with NADPH (Phase I); assay type: in vitro ADME; details: mouse liver microsomes; for CLhep predicted at 2 μM: read-out: Predicted hepatic Clint; for CLint scaled at 2 μM: read-out: Scaled-up CLint
Method: as §2, §6, §7, §5

3T3L-1 = assay: Cellular Activity IC50 (3T3L-1); assay type: cell-based; details: Mus musculus, 3T3-L1
U2OS = assay: Cellular Activity IC50 (U2OS); assay type: cell-based; details: Homo sapiens
[8] = IV 1 mg/kg, female C57B16/N mice
[9] = PO 10 mg/kg, female C57B16/N mice, plasma
[10] = PO 50 mg/kg, female C57B16/N mice, plasma
[11] = female, C57B16/N, mouse, plasma, iv, 1 mg/kg
[12] = female, C57B16/N, mouse, plasma, po, 10 mg/kg
[13] = female, C57B16/N, mouse, plasma, po, 50 mg/kg
[14] = K562, read-out: Cellular Activity IC50 (K562)
[15] = plasma 1-MNA after inhibitor IV 1 mg/kg
[16] = plasma 1-MNA after inhibitor PO 10 mg/kg
[17] = plasma 1-MNA after inhibitor PO 50 mg/kg
[18] = read-out: Predicted hepatic Clint

Compound: CNc1cc(C)c(C(N)=O)cn1 [Compound 4, 4-methyl-6-(methylamino) nicotinamide]
- IC50 (recombinant human NNMT; 40 nM recombinant human NNMT, 8 μM nicotinamide, 20 min, read-out: IC50, in vitro NNMT enzyme inhibition assay): 244 nM
- IC50 (recombinant human NNMT; read-out: in vitro hNNMT IC50): 240 nM
- Cl_obs [1, 8]: 62.8 mL/min/kg
- Vss_obs [1, 8]: 0.786 L/kg
- AUC_%Extrap_obs ([1]; IV 1 mg/kg, female C57B16/N mice, plasma): 1.63%
- F_last ([1]; PO 10 mg/kg, female C57B16/N mice): 101%
- AUC_%Extrap_obs [1, 9]: 0.194%
- T1/2 [1, 9]: 1.11 h
- F_last ([1]; PO 50 mg/kg, female C57B16/N mice): 222%
- AUC_%Extrap_obs [1, 10]: 0.319%
- AUClast [1, 10]: 30747 ng·h/mL
- Cmax [1, 10]: 38900 ng/mL
- T1/2 [1, 10]: 1.79 h
- AUC(0-inf) [1, 11]: 278 ng·h/mL
- AUC(0-t) [1, 11]: 273 ng·h/mL
- C0 [1, 11]: 1190 ng/mL
- MRT inf [1, 11]: 0.216 h
- half-life [1, 11]: 0.174 h
- AUC(0-inf) [1, 12]: 2810 ng·h/mL
- AUC(0-t) [1, 12]: 2800 ng·h/mL
- Cmax [1, 12]: 4000 ng/mL
- MRT inf [1, 12]: 0.635 h
- AUC(0-inf) [1, 13]: 30800 ng·h/mL
- MRT inf [1, 13]: 0.695 h
- IC50 (NNMT in K562 cells; [14]): 16 nM
- IC50 (NNMT in K562 cells; K562 cells, 24 h, 1-MNA quantification, read-out: IC50, NNMT inhibition in K562 cells): 15 nM
- AUClast of 1-MNA [2, 15]: 792 ng·h/mL
- Cmax of 1-MNA [2, 15]: 39.3 ng/mL
- Tmax of 1-MNA [2, 15]: 16.7 h
- AUClast of 1-MNA [2, 16]: 761 ng·h/mL
- Cmax of 1-MNA [2, 16]: 42.4 ng/mL
- Tmax of 1-MNA [2, 16]: 18.7 h
- AUClast of 1-MNA [2, 17]: 678 ng·h/mL
- Cmax of 1-MNA [2, 17]: 48.8 ng/mL
- Tmax of 1-MNA [2, 17]: 24.0 h
- microsomal CLint at 2 μM [3]: < 5.42 µL/min/mg
- half-life at 2 μM ([3]; 2 μM): > 4.26 h
- Remaining (%) at 60 min ([3]; 60 min): 85.18%
- CLhep predicted at 2 μM [3, 18]: < 18.8 mL/min/kg
- CLint scaled at 2 μM ([3]; read-out: Scaled-up CLint): < 23.7 mL/min/kg
- NNMT inhibition in ovarian CAFs (1-MNA quantification) (NNMT in ovarian CAFs): significantly inhibited NNMT
- microsomal CLint at 2 μM [4]: < 5.42 µL/min/mg
- half-life at 2 μM ([4]; 2 μM): > 4.26 h
- Remaining (%) at 60 min ([4]; 60 min): 96.85%
- CLhep predicted at 2 μM [4, 18]: < 5.12 mL/min/kg
- CLint scaled at 2 μM ([4]; read-out: Scaled-up CLint): < 6.79 mL/min/kg
- microsomal CLint at 2 μM [5]: < 5.42 µL/min/mg
- half-life at 2 μM [5]: > 4.26 h
- Remaining (%) at 60 min [5]: 94.54%
- CLhep predicted at 2 μM [5]: < 5.12 mL/min/kg
- CLint scaled at 2 μM [5]: < 6.79 mL/min/kg
- CAF markers in ovarian CAFs [6]: reduction in CAF markers
- microsomal CLint at 2 μM [7]: < 5.42 µL/min/mg
- half-life at 2 μM [7]: > 4.26 h
- Remaining (%) at 60 min [7]: 85.32%
- CLhep predicted at 2 μM [7]: < 18.8 mL/min/kg
- CLint scaled at 2 μM [7]: < 23.7 mL/min/kg

- IC50 (recombinant human NNMT; read-out: in vitro hNNMT IC50): 673 nM
- IC50 (NNMT in K562 cells; [14]): 106 nM
- microsomal CLint at 2 μM [5]: < 5.42 µL/min/mg
- half-life at 2 μM [5]: > 4.26 h
- Remaining (%) at 60 min [5]: 110.09%
- CLhep predicted at 2 μM [5]: < 5.12 mL/min/kg
- CLint scaled at 2 μM [5]: < 6.79 mL/min/kg
- microsomal CLint at 2 μM [7]: < 5.42 µL/min/mg
- half-life at 2 μM [7]: > 4.26 h
- Remaining (%) at 60 min [7]: 85.85%
- CLhep predicted at 2 μM [7]: < 18.8 mL/min/kg
- CLint scaled at 2 μM [7]: < 23.7 mL/min/kg
Compound: CNc1cc(Cl)c(C(N)=O)cn1 [Compound 13]

Compound: COc1ccc(C(N)=O)cn1 [JBSNF-000088]
- IC50 (recombinant human NNMT; read-out: in vitro hNNMT IC50): 2400 nM
- IC50 (3T3L-1): 6300 nM
- IC50 (U2OS): 1600 nM

- AUC_%Extrap_obs [1, 10]: 0.0313%
- AUC(0-inf) [1, 13]: 15500 ng·h/mL
- AUC(0-t) [1, 13]: 15400 ng·h/mL
- Cmax [1, 13]: 20900 ng/mL
- MRT inf [1, 13]: 0.57 h
- Tmax [1, 13]: 0.333 h
- half-life [1, 13]: 1.06 h
- microsomal CLint at 2 μM [5]: ~6.84 µL/min/mg
- half-life at 2 μM [5]: ~3.38 h
- Remaining (%) at 60 min [5]: 81.72%
- CLhep predicted at 2 μM [5]: ~6.06 mL/min/kg
- CLint scaled at 2 μM [5]: ~8.57 mL/min/kg
- IC50 (U2OS): 300 nM
- microsomal CLint at 2 μM [7]: ~4.94 µL/min/mg
- half-life at 2 μM [7]: ~4.67 h
- Remaining (%) at 60 min [7]: 84.73%
- CLhep predicted at 2 μM [7]: ~17.4 mL/min/kg
- CLint scaled at 2 μM [7]: ~21.6 mL/min/kg
Compound: CNc1ccc(C(N)=O)cn1 [JBSNF-000265, reference compound]
- AUClast of 1-MNA [2, 17]: 799 ng·h/mL
- Cmax of 1-MNA [2, 17]: 39.3 ng/mL
- Tmax of 1-MNA [2, 17]: 6.7 h
- IC50 (3T3L-1): 2100 nM

Compound: CNc1cc(C)c(C(N)=O)cn1 [JBSNF-000581, reference compound]
- IC50 (recombinant human NNMT; read-out: in vitro hNNMT IC50): 840 nM
